Results as given in article PMC9143821, “Design and Synthesis of a Novel 4-aryl-N-(2-alkoxythieno [2,3-b]pyrazine-3-yl)-4-arylpiperazine-1-carboxamide DGG200064 Showed Therapeutic Effect on Colon Cancer through G2/M Arrest” (Pharmaceuticals, 2022).

What was measured:
HCT116 cells = test: FACS analysis of cell cycle distribution; assay type: cell-based, human; details: HCT116, different concentrations, 6 h
Protocol: Many anticancer drugs induce apoptosis through programmed signaling in tumor cells. To test whether the newly developed 4-phenyl-N-(thieno[2,3-b]pyrazin-3-yl)piperazine-1-carboxamide derivatives could induce apoptosis, we conducted a FACS analysis of HCT116 cells with the representative compound 7c or DGG200064. Cell cycle distribution of HCT116 cells was investigated with different concentrations of DGG200064 for 6 h. […] Additionally, DGG200064 was tested for induced G2/M arrest in the other types of colon cancer cells in concentrations of 50 nM for 6 h (Figure 2b).
A colon cancer cells were trypsinized and fixed in 70% (vol/vol) ethanol for DNA staining. For cell cycle analysis, fixed cells were washed with PBS and subsequently resuspended in Propidium Iodide (PI)/RNase staining solution (0.05 mg/mL PI, 0.1 mg/mL RNase A in PBS). FACS analysis was performed using FACSCanto II (BD Biosciences, San Jose, CA, USA).

Permeability = assay type: in vitro ADME
Description: (§1) Table 4 Physicochemical Properties of the Lead Compounds 7c. | column: 7c

[1] = Maximum tolerated dose evaluation, 2 weeks; assay type: in vivo; details: 150 mg/kg oral administration, 2-week evaluation
HCT8 = test: SRB assay, colon cancer cell growth inhibition; assay type: cell-based; details: Homo sapiens, HCT-8, 48 h
Protocol: (§2) A series of 4-phenyl-N-(thieno[2,3-b]pyrazin-3-yl)piperazine-1-carboxamides derivatives 7a–7i were tested for the colon cancer cell growth inhibition effect using the SRB assay (Table 2). […] Compounds 7a and 7b, containing chlorine at the C6 position of thieno[2,3-b]pyrazine ring, have weaker anticancer activity than its proton-containing derivatives 7c–7i. On the other hand, 7c has shown higher inhibition activity than 7d with methyl substituents at the C3 and C5 positions of the phenyl ring. […] Substitutions with one fluorine atom in the phenyl ring could not improve the inhibition effect of the compounds 7g–7h.
(§3) The HCT116, HCT8, KM12, HCT15, HT29, COLO-205, SW620 cell line was obtained from the National Cancer Institute (Material Transfer Agreement number: 2702–09). DLD1 cell line was obtained from the Korean cell line bank. Cells were cultured in complete Roswell Park Memorial Institute (RPMI) 1640 medium (Hyclone, South Logan, UT, USA) containing 10% fetal bovine serum (Hyclone, South Logan, UT, USA) in an atmosphere of 5% CO2 and 100% humidity at 37 °C. A small interfering RNA (siRNA) duplex targeting human c-Jun and FBXW7 (Genolution, Seoul, Korea) were introduced into cells using Lipofector-EXT (AptaBio, Yongin, Korea), according to the manufacturer’s instructions. As negative controls, cells were incubated with Lipofector-EXT (AptaBio, Yongin, KOR) and a negative siRNA (Genolution, Seoul, Korea).
(§4) Cells (100 μL containing 5000–10,000 cells/well) were incubated in 96 well microtiter plates. After 24 h, drugs were added (100 μL) to each well and the cultures were incubated for 48 h at 37 °C. The cells were then fixed in TCA (50 μL per well). The plates were incubated for a minimum of 1 h or a maximum of 3 h at 4 °C. The liquid was removed from the plate, which was then rinsed five times with water and allowed to dry at room temperature (rt) for approximately 12–24 h. The fixed cells were stained with 100 μL Sulforhodamine B (SRB) solution for 5 min at rt. After staining, the plate was washed three times with 1% glacial acetic acid and dried at rt for approximately 12–24 h. The SRB was then solubilized in 10 mM Tris buffer, and the absorbance was read at 515 nm. The effect of the drugs was expressed as GI50 (50% growth inhibition).

SW620 = test: SRB assay, colon cancer cell growth inhibition; assay type: cell-based; details: Homo sapiens, SW-620, 48 h
Protocol: as §2, §3, §4

HT29 = test: SRB assay, colon cancer cell growth inhibition; assay type: cell-based; details: Homo sapiens, HT-29, 48 h
Protocol: as §2, §3, §4

Colo205 = test: SRB assay, colon cancer cell growth inhibition; assay type: cell-based; details: Homo sapiens, COLO 205, 48 h
Protocol: as §2, §3, §4

KM12 = test: SRB assay, colon cancer cell growth inhibition; assay type: cell-based; details: Homo sapiens, 48 h
Protocol: as §2, §3, §4

HCT116 = test: SRB assay, colon cancer cell growth inhibition; assay type: cell-based; details: Homo sapiens, HCT-116; HCT116, SRB, 48 h
Protocol: as §2, §3, §4

HCT15 = test: SRB assay, colon cancer cell growth inhibition; assay type: cell-based; details: Homo sapiens, HCT-15, 48 h
Protocol: as §2, §3, §4

logP determination = assay type: physicochemical
Description: as §1

COc1cc(OC)cc(N2CCN(C(=O)Nc3nc4sccc4nc3OC)CC2)c1 [Compound 7c, 4-(3,5-Dimethoxyphenyl)-N-(2-methoxythieno[2,3-b]pyrazin-3-yl)piperazine-1-carboxamide]
G2/M arrest (HCT116 cells): induced G/2M arrest in a dose-dependent manner
apoptosis (HCT116 cells): did not cause apoptosis
Permeability Class (Permeability): High
Papp (Permeability; PAMPA, read-out: Permeability Pe): 295 nm/s
body weight [1]: no loss of body weight
GI50 (HCT8): 0.054 µM
GI50 (SW620): 0.027 µM
GI50 (HT29): 0.017 µM
GI50 (Colo205): 0.024 µM
GI50 (KM12): 0.008 µM
GI50 (HCT116): 0.012 µM
GI50 (HCT15): 0.026 µM
logP (logP determination): 2.63
